Data set [1] has as its system elicitation of sensitization to propranolol. The experiment in a line: Effect of methyl nicotinate on the elicitation of sensitization to propranolol (Minolta Chroma Meter). The format is in vivo, adult male known to be sensitized to propranolol. As to conditions: 0.05 w/v percent methyl nicotinate with 0.1 w/v percent propranolol base, two hours application, upper arm; recorded two and three days later; FIG. 6. The text has this: The following formulations were made to determine the effect of methyl nicotinate on the elicitation of sensitization to propranolol:
1) 0.1 w/v percent propranolol base, 32 w/v percent ethanol, 5 w/v percent HEPPS, 2 w/v percent hydroxyethylcellulose, NaOH q.s. pH 8 and distilled water q.s., and
2) 0.1 w/v percent propranolol base, 0.05 w/v percent methyl nicotinate, 32 w/v percent ethanol, 5 w/v percent HEPPS, 2 w/v percent hydroxyethylcellulose, NaOH q.s. pH 8 and distilled water q.s.
0.020 ml of each formulation was placed in a Finn® chamber. The chambers were applied to four sites on the upper arm of an adult, who was known to be sensitized to propranolol. After two hours the chambers were removed and the sites washed. The intensity of the reaction was recorded two and three days later using the mean a* measurement recorded by a Minolta® Chroma Meter.

For data set [2], the system named is sensitization and elicitation of sensitization to tetracaine. The experiment in a line: Sensitization and elicitation reactions to tetracaine at 72 hours, Minolta Chroma Meter. It counts as in vivo, hairless guinea pigs. As to conditions: for a" value: challenge 1% tetracaine, alone or + 1% methyl nicotinate, Minolta Chroma Meter. The source says:
The Minolta® Chroma Meter converts all colors within the range of human perception into a numerical code using the L*, a* and b* notation system. L* expresses brightness on the black-white axis; a* expresses hue on the red-green axis; and b* expresses chroma on the yellow-blue axis so that a specific numerical code enables an exact color description of an object. Minolta® measurements were made by taking the mean a* value of three readings at the treated site.
(§1) After the ninth induction exposure, the animals received no treatment for two weeks. The following formulations were used to determine the effect of methyl nicotinate on the sensitization and elicitation of sensitization to tetracaine during the challenge phase:
(§2) 1) 1 w/v percent tetracaine HCl, 28 w/v percent ethanol, 5 w/v percent HEPPS, 2 w/v percent hydroxypropylcellulose, NaOH q.s. pH 8 and distilled water q.s.,
(§3) 2) 1 w/v percent tetracaine HCl, 1.0 w/v percent methyl nicotinate, 28 w/v percent ethanol, 5 w/v percent HEPPS, 2 w/v percent hydroxypropylcellulose, NaOH q.s. pH 8 and distilled water q.s., and
(§4) 3) 28 w/v percent ethanol, 5 w/v percent HEPPS, 2 w/v percent hydroxypropylcellulose, NaOH q.s. pH 8 and distilled water q.s.
(§5) 0.1 ml of each formulation was placed in a Finn® chamber. The chamber was then applied to the backs of the animals for 6 hours on previously untreated sites.
The test sites of the animals were then scored using a Minolta® Chroma Meter.

For data set [3], the system named is chloroquine-induced irritation. The data set is described as follows: Effect of methyl nicotinate on chloroquine-induced irritation (Finn chamber, Minolta Chroma Meter). The format is in vivo, adult human male. The settings on record: 0.05 w/v methyl nicotinate with chloroquine base 1% w/v, 16 hours application, human forearm; scored 3 hours to 7 days; FIG. 5. The source says: The following formulations were made to determine the effect of methyl nicotinate on chloroquine-induced irritation:
1) chloroquine base 1% w/v, ethanol 24% w/v, HEPPS 5% w/v, hydroxyethylcellulose gel 2% w/v, NaOH q.s. pH 8.5 and distilled water q.s.,
2) chloroquine base 1% w/v, methyl nicotinate 0.05 w/v, ethanol 24% w/v, HEPPS 5% w/v, hydroxyethylcellulose gel 2% w/v, NaOH q.s. pH 8.5 and distilled water q.s.,
3) methyl nicotinate 0.05 w/v, ethanol 24% w/v, HEPPS 5% w/v, hydroxyethyl cellulose gel 2% w/v, NaOH q.s. pH 8.5 and distilled water q.s., and
4) ethanol 24% w/v, HEPPS 5% w/v, hydroxyethylcellulose gel 2% w/v, NaOH q.s. pH 8.5 and distilled water q.s.
0.020 ml of each formulation was placed in a Finn® chamber. The chambers were inverted and applied to four skin sites on the forearm of an adult human. […] At 3 hours, 8 hours, 1 day, 2 days, 3 days, 4 days, 6 days and 7 days thereafter, the sites were observed and the intensity of the irritant reaction was scored with a Minolta® Chroma Meter.
The Minolta® Chroma Meter converts all colors within the range of human perception into a numerical code using the L*, a* and b* notation system. […] Minolta® measurements were made by taking the mean a* value of three readings at the treated site. That result was then subtracted from the mean a* value of three readings at adjacent sites treated with a placebo formulation.

The test system of data set [4] is cumulative irritation produced by tetracaine HCl. The experiment in a line: Cumulative irritation produced by tetracaine HCl during the induction phase, visual score. The format is in vivo, hairless guinea pigs. The settings on record: 2% tetracaine, alone or + 1% methyl nicotinate, Table 1 scale (total possible score 8).
Source text: The following formulations were made to determine the effect of methyl nicotinate on the cumulative irritation produced by tetracaine HCl during the induction phase:
1) 2 w/v percent tetracaine HCl, 28 w/v percent ethanol, 5 w/v percent HEPPS, 2 w/v percent hydroxypropylcellulose, NaOH q.s. pH 8 and distilled water q.s.,
2) 2 w/v percent tetracaine HCl, 1.0 w/v percent methyl nicotinate, 28 w/v percent ethanol, 5 w/v percent HEPPS, 2 w/v percent hydroxypropylcellulose, NaOH q.s. pH 8 and distilled water q.s., and
as §4
0.1 ml of each formulation was placed in a Finn® chamber, and applied to the back of a hairless guinea pigs (Charles River). After 6 hours the chambers were removed. This was repeated a total of nine times. The inductions were alternated between two sites, such that one site received five applications and the other site received four applications. Two, 24 and 48 hours after removal of the first, fourth, seventh and ninth applications, the treatment sites were scored to assess irritation.

Data set [5] has as its system sensitization and elicitation of sensitization to tetracaine. The experiment in a line: Sensitization and elicitation of sensitization to tetracaine during the challenge phase, visual score. The format is in vivo, hairless guinea pigs. Details: scale not given here. As to conditions: challenge 1% tetracaine, alone or + methyl nicotinate (1.0 w/v percent), Table 1 scale.
Source text: as §1, §2, §3, §4, §5

On to `COC(=O)c1cccnc1` [methyl nicotinate], for which the “elicitation of the sensitization reaction (mean a* value)” value in data set [1] is given as “inhibited the elicitation of the sensitization reaction”. Also, in data set [2] (FIG. 9), the “elicitation reaction to tetracaine (Minolta scores)” value is listed as “decreased” and the “sensitization reaction to tetracaine (Minolta scores)” value is recorded as “decreased”. Also, the “irritant reaction (mean a* value)” value in data set [3] was “reduced the irritant reaction”.

Regarding `CCCCNc1ccc(C(=O)OCCN(C)C)cc1` [tetracaine], the visual irritation score in data set [4] (application four, 2 h after removal) came to 2.7; in data set [4] (application four, 24 h after removal), 2.6; in data set [4] (application four, 48 h after removal), 1.8; in data set [4] (application nine, 2 h after removal), 6.7; in data set [4] (application nine, 24 h after removal), 6.6; in data set [4] (application nine, 48 h after removal), 6.0. The visual irritation score is 1.9 in data set [4] (application one, 2 h after removal); 1.2 in data set [4] (application one, 24 h after removal); 1.1 in data set [4] (application one, 48 h after removal); 5.8 in data set [4] (application seven, 2 h after removal); 5.9 in data set [4] (application seven, 24 h after removal); 5.6 in data set [4] (application seven, 48 h after removal). Also, the “a" value” in data set [2] (induction formulation 2% tetracaine + 1% methyl nicotinate) was 10.6; in data set [2] (induction formulation 2% tetracaine), 12.8; in data set [2] (induction formulation Control), 8.8. For the same molecule, the “visual score of challenge site” value in data set [5] (induction 2% tetracaine + 1% methyl nicotinate, 2 h after removal) is on record as 2.8; in data set [5] (induction 2% tetracaine + 1% methyl nicotinate, 24 h after removal), 2.3; in data set [5] (induction 2% tetracaine + 1% methyl nicotinate, 48 h after removal) it was 2.1; in data set [5] (induction 2% tetracaine + 1% methyl nicotinate, 72 h after removal) it was 2.0; in data set [5] (induction 2% tetracaine, 2 h after removal), 3.4; in data set [5] (induction 2% tetracaine, 24 h after removal) it was 2.5. Also, the “visual score of challenge site” value turned out to be 2.2 in data set [5] (induction 2% tetracaine, 48 h after removal); 2.1 in data set [5] (induction 2% tetracaine, 72 h after removal); 1.6 in data set [5] (induction Control, 2 h after removal); 1.0 in data set [5] (induction Control, 24 h after removal); 0.8 in data set [5] (induction Control, 48 h after removal); 0.6 in data set [5] (induction Control, 72 h after removal).

Source of the values: patent publication US5451407A, “Reduction or prevention of skin irritation or sensitization during transdermal administration of a irritating or sensitizing drug” (ALZA Corporation, priority 1993, dated 1995).
